From patent US6593352B2, “Substituted anthranilic acids, their use as a medicament or diagnostic, and medicament comprising them, and a pharmaceutical combination preparation containing a sodium/hydrogen exchange (NHE) blocker” (Aventis Pharma Deutschland GmbH, priority 2000, dated 2003)

Key:
heart form of human NBC1 = molecular target: T1, heart form of human NBC1 (Homo sapiens, UniProt Q9Y6R1); experiment: NBC activity measurement (pHi recovery after acid load, BCECF, FLIPR); assay type: cell-based; conditions: residual NBC activity at inhibitor concentration of 10 μM; CHO K1 cells transfected with heart form of human NBC1; NHE and NCBE blocked; duplicate determinations
T1 construct: expressed in transfected cells
T1 sequence (Q9Y6R1 1-1079): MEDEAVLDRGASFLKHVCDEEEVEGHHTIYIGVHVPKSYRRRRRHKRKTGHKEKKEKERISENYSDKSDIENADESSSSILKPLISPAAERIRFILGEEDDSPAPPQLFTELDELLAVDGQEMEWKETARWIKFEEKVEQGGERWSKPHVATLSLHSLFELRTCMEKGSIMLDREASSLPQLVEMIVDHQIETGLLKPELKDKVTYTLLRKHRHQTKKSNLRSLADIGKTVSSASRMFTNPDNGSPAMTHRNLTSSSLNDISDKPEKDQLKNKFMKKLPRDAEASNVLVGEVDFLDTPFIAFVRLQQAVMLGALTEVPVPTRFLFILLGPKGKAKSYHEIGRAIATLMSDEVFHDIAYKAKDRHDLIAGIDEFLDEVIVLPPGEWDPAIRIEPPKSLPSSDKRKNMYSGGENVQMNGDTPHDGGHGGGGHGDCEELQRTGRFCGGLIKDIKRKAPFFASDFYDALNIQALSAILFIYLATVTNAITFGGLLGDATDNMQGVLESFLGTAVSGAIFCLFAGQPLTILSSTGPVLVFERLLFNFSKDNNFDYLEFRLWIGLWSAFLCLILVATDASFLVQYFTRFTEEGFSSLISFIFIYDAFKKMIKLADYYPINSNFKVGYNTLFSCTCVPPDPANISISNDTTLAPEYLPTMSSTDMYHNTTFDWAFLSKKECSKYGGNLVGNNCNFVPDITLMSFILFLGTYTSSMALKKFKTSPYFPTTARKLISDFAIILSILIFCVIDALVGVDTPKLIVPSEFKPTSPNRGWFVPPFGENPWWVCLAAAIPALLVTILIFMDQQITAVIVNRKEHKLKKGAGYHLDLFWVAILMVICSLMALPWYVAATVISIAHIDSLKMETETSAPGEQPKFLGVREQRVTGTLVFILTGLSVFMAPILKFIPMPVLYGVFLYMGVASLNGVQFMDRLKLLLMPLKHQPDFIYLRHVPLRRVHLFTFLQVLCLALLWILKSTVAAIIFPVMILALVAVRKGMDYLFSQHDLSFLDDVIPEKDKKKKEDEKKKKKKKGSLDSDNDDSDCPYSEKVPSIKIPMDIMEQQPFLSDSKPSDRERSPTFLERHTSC
Source text: Firstly, the heart form of human NBC1 was cloned by RT-PCR. After confirmation of the sequence, the corresponding cDNAs were cloned into the vector pcDNA3.1+, which contains the neo gene as a selection marker for eukaryotic cells. For the amplification of the human heart form of NBC1, human heart mRNA (Clontech, Palo Alto, Calif., USA) was amplified using primers which cover the area in which the heart form differs from the kidney form. The heart form in this case differs only at the 5′ end of the coding sequence. The area coding for the first 41 amino acids of the kidney form is replaced in the heart form by an area coding for 85 amino acids (positions 118-370 from Abukadze et al., J. Biol. Chem. 273,17689-17695 (1998) or positions 45-294 from Choi et al., Am. J. Physiol. Cell Physiol. 276, C576-C584 (1999) replace positions 150-270 from Burnham et al. (see above.), J. Biol. Chem. 272, 19 111-19 114 (1997). The product of the PCR reaction was first cloned into the vector pCR2.1 and, after verification of the sequence, cloned into the cDNA of the kidney form of NBC1 by means of cleavage sites introduced by means of the PCR reaction. The construct obtained was checked for correct incorporation of the human heart NBC1-cDNA by sequencing. The plasmids obtained for the heart form of human NBC1 were transfected by means of the LipofectAmine™ reagent of the company LifeTechnologies (Gaithersburg, Md., USA) into the cell line CHO K1 (ovary cells of the Chinese hamster), which has no measurable NBC activity. After selection for transfected cells by means of growth in G418-containing medium (only cells which have obtained a neo gene by transfection can survive under these conditions), individual cells were isolated and cultured. Using the test described below, cell clones were identified in FLIPR which have a clear NBC activity. The best cell lines were used for the further tests and, to avoid a loss of the transfected sequence, cultured in G418-containing medium under continuous selection pressure.
For the determination of the inhibitory activity of the active compounds on the heart form of human NBC 1, a test was constructed which represents a further development of the assay constructed for the testing of inhibitors of NCBE (Na^+dependent Cl^−/HCO3− exchanger) (EP 0 903 339) based on the acid load method (Sardet et al., Cell 56, 271-280 (1989); Faber et al., Cell. Physiol. Biochem. 6, 39-49 (1996). In this test, the recovery of the intracellular pH (pHi) after prior acidification is determined under conditions in which the NBC is active, the other pHiregulating systems of the CHO cells such as NHE (Na^+/H^+ exchanger) and NCBE (Na^+-dependent Cl^−/HCO3− exchanger) are blocked, however, by specific inhibitors. In this way, it is ensured that the recovery of the intracellular pH observed is based on the activity of NBC1.
The transfected cells were inoculated into 96 well microtiter plates in a density of about 15,000 cells/well in 200 μl of growth medium and incubated overnight at 37° C. in a CO2 incubator. The intracellular pH of the transfected cells was determined using the pH-sensitive fluorescent dye BCECF (Molecular Probes (Eugene, Oreg., USA), the precursor BCECF-AM is employed). The cells were first loaded with BCECF-AM. The growth medium of the cells inoculated on the day before was manually removed, since the fetal calf serum present in the medium could interfere with the BCECF staining. For staining, 100 μl of NH4Cl stain buffer (20 mM NH4Cl, 115 mM NaCl, 1 mM MgSO4, 1 mM CaCl2, 5 mM KCl, 20 mMHEPES, 5 mM glucose; pH adjusted to 7.4 using 1 M NaOH) was added to the cells of each well, which contains 5 μM BCECF-AM. The cells were incubated with the stain solution at 37° C. in a CO2 incubator for 20 minutes. […]

[1] = system: isolated beating rat heart; experiment: ischemia/reperfusion model (isolated beating rat heart); conditions: combination of the NBC blocker with the NHE inhibitor cariporide mesilate

Compound	residual activity [%] at 10 μM (heart form of human NBC1) [%]	cardioprotective action [1]
Cc1cc(NCCCCc2ccccc2)c(C(=O)O)cc1S(=O)(=O)NCc1ccc(F)c(Cl)c1 [Example 4, 4-Methyl-5-(3-chloro-4-fluorobenzylsulfamoyl)-2-phenylbutylaminobenzoic acid]	54	–
O=C(O)c1cc(S(=O)(=O)NCc2ccc(F)c(Cl)c2)c(Cl)cc1NCCCCc1ccccc1 [Example 1, 4-Chloro-5-(3-chloro-4-fluorobenzylsulfamoyl)-2-phenylbutylaminobenzoic acid]	46	greater than additive cardioprotective action
O=C(O)c1cc(S(=O)(=O)NCc2ccccn2)c(Cl)cc1NCCCCc1ccccc1 [Example 9, 4-Chloro-2-phenylbutylamino-5-[(pyridin-2-ylmethyl)sulfamoyl]benzoic acid]	89	–
O=C(O)c1cc(S(=O)(=O)NCCc2cccs2)c(Cl)cc1NCCCCc1ccccc1 [Example 17, 4-Chloro-2-phenylbutylamino-5-(2-thiophen-2-ylethylsulfamoyl)benzoic acid]	95	–
O=C(O)c1cc(S(=O)(=O)NCc2cccc(Cl)c2)c(Cl)cc1NCCCCc1ccccc1 [Example 10, 4-Chloro-2-phenylbutylamino-5-(3-chlorobenzylsulfamoyl)benzoic Acid]	75	–
O=C(O)c1cc(S(=O)(=O)NCc2ccncc2)c(Cl)cc1NCCCCc1ccccc1 [Example 8, 4-Chloro-2-phenylbutylamino-5-[(pyridin-4-ylmethyl)sulfamoyl]benzoic acid]	89	–
NS(=O)(=O)c1ccc(CNS(=O)(=O)c2cc(C(=O)O)c(NCCCCc3ccccc3)cc2Cl)cc1 [Example 11, 4-Chloro-2-phenylbutylamino-5-(4-sulfamoylbenzylsulfamoyl)benzoic acid]	81	–
O=C(O)c1cc(S(=O)(=O)NCc2ccc(Cl)cc2Cl)c(Cl)cc1NCCCCc1ccccc1 [Example 13, 4-Chloro-2-phenylbutylamino-5-(2,4-dichlorobenzylsulfamoyl)benzoic acid]	60	–
O=C(O)c1cc(S(=O)(=O)NCc2c(F)cccc2Cl)c(Cl)cc1NCCCCc1ccccc1 [Example 14, 4-Chloro-2-phenylbutylamino-5-(2-chloro-6-fluorobenzylsulfamoyl)benzoic acid]	87	–
O=C(O)c1cc(S(=O)(=O)NCc2cccc(Cl)c2Cl)c(Cl)cc1NCCCCc1ccccc1 [Example 12, 4-Chloro-2-phenylbutylamino-5-(2,3-dichlorobenzylsulfamoyl)benzoic acid]	37	–
CC(C)CNS(=O)(=O)c1cc(C(=O)O)c(NCCCCc2ccccc2)cc1Cl [Example 21, 4-Chloro-5-(isobutylsulfamoyl)-2-phenylbutylaminobenzoic acid]	94	–

More lines, main results first:

residual activity [%] at 10 μM (heart form of human NBC1) [%]	Compound	cardioprotective action [1]
88	O=C(O)c1cc(S(=O)(=O)NCc2ccc(F)c(Cl)c2)ccc1NCCCCc1ccccc1 [Example 3, 5-(3-Chloro-4-fluorobenzylsulfamoyl)-2-phenylbutylaminobenzoic acid]	–
69	CCCc1cc(NCCCCc2ccccc2)c(C(=O)O)cc1S(=O)(=O)NCc1ccc(F)c(Cl)c1 [Example 6, 4-n-Propyl-5-(3-chloro-4-fluorobenzylsulfamoyl)-2-phenylbutylaminobenzoic acid]	–
79	4-Chloro-5-[(5-methylfuran-2-ylmethyl)sulfamoyl]-2-phenylbutylaminobenzoic acid [Example 15]	–
77	4-Chloro-5-(phenylbutylsulfamoyl)-2-phenylbutylaminobenzoic Acid [Example 19]	–
89	4-Chloro-5-(cyclohexylmethylsulfamoyl)-2-phenylbutylaminobenzoic acid [Example 20]	–
95	4-(4-Methylphenyl)-5-(3-chloro-4-fluorobenzylsulfamoyl)-2-phenylbutylaminobenzoic acid [Example 7]	–
79	CCc1ccc(NS(=O)(=O)c2cc(C(=O)O)c(NCCCCc3ccccc3)cc2Cl)cc1 [Example 18, 4-Chloro-5-(4-ethylphenylsulfamoyl)-2-phenylbutylaminobenzoic acid]	–
78	CC(C)c1cc(NCCCCc2ccccc2)c(C(=O)O)cc1S(=O)(=O)NCc1ccc(F)c(Cl)c1 [Example 5, 4-isopropyl-5-(3-chloro-4-fluorobenzylsulfamoyl)-2-phenylbutylaminobenzoic acid]	–
56	O=C(O)c1cc(S(=O)(=O)NCc2ccc(F)c(Cl)c2)c(Br)cc1NCCCCc1ccccc1 [Example 2, 4-Bromo-5-(3-chloro-4-fluorobenzylsulfamoyl)-2-phenylbutylaminobenzoic acid]	–
91	O=C(O)c1cc(S(=O)(=O)NCCc2ccc(Cl)cc2)c(Cl)cc1NCCCCc1ccccc1 [Example 16, 4-Chloro-5-[2-(4-chlorophenyl)ethylsulfamoyl]-2-phenylbutylaminobenzoic acid]	–
